Reference: PubChem BioAssay AID2060905 (Molecular Pharmacology Branch, DTP, NCI, 2025)
Each block holds one compound with its values, some of them ahead of it.

Tested on: 282377-053-R-J1-PDC complex spheroid viability
Assay: Anticancer human tumor 282377-053-R-J1-PDC patient-derived colon adenocarcinoma cell line growth inhibition [RAS]
Conditions: for IC50: curve of first compound; for viability, T/C: stronger effect = lower value
Text: RAS pathway inhibitors in Combinations in Complex Spheroids
A high-throughput screen of multi-cell type tumor spheroids was designed to identify active combinations of RAS pathway inhibitors and targeted small molecules. Complex spheroids include a stromal component modeled by human endothelial cells (HUVEC) and fibroblasts modeled by human mesenchymal stem cells (MSCs). The concentration ranges selected for each drug and investigational agent were based upon clinically achievable concentrations if the clinical Cmax of the agent was known.
Compounds. The drugs and investigational agents: abemaciclib (NSC768073), cobimetinib (NSC768068), divarasib (GDC6063, NSC841802), docetaxel (NSC628503), GDC-1971 (RLY-1971, NSC841576), gemcitabine (NSC613327), inavolisib (NSC800729), ipatasertib (NSC767898), KB-0742 (NSC834161), MRTX-1133 (NSC836407), osimertinib (NSC779217), RMC-4630 (NSC839698), RMC-6236 (NSC851965), RMC-6291 (NSC852671), Ro-3306 (NSC812927), sapanisertib (NSC764658), SN-38 (NSC673596), staurosporine (NSC755774), SY5609 (NSC837396), and tovorafenib (DAY101, NSC766906), were obtained from the National Cancer Institute (NCI) Developmental Therapeutics Program Chemical Repository. The FDA-approved anticancer drug set is available from the NCI Developmental Therapeutics Program. […] The stock solutions were prepared in dimethyl sulfoxide (DMSO, Sigma-Aldrich, St. Louis, MO, cat. D2650) at 800-fold the tested concentration and stored at -70 degrees C prior to their use. All drugs and investigational agents were tested over a range starting from a high concentration at or near the clinical Cmax and decreasing in half-log increments. If the clinical Cmax for an agent had not been determined, the highest concentration tested was 10 microM.
Cell Culture. All cells were maintained in an incubator at 37 degrees C and 5% CO2 with 95% humidity. The PDC lines were cultured according to standard operating procedures established by the NCI PDMR. All PDCs were thawed and cultured in Matrigel-coated flasks prepared with a working solution of 1X Ham's F-12 nutrient mix, without supplementation (Invitrogen, Waltham, MA, cat. 11765054), 100 U/mL penicillin-streptomycin (Invitrogen, cat. 15140122), and 2.5% Matrigel (Corning Inc., Corning, NY, cat. 354248) for the first three passages. The 362531-283-R-J2-PDC and 782815-120-R-J1-PDC lines were cultured in 6C/Colon 1B media, which includes advanced DMEM/F-12 (Thermo Fisher Scientific, cat. 12634028), 10 mM HEPES (Thermo Fisher Scientific, cat. 15630080), 1X GlutaMAX supplement (Thermo Fisher Scientific, cat. 35050061), 0.1 mg/mL primocin (InvivoGen, San Diego, CA, cat. ant-pm-2), 10% defined fetal bovine serum, heat inactivated (HyClone Laboratories Inc., Logan, UT, cat. SH30070.03HI), 50% L-WRN conditioned media (ATCC, cat. CRL-3276), 1.25 mM N-Acetyl-L-cysteine (Sigma-Aldrich, cat. A9165), 10 mM nicotinamide (Sigma-Aldrich, cat. N0636), 1X B-27 supplement (Thermo Fisher Scientific, cat. 17504044), 1X N-2 supplement (Thermo Fisher Scientific, cat. 17502048), 50 ng/mL human EGF (Thermo Fisher Scientific, cat. PHG0311), and 10 microM Y-27632 dihydrochloride (Tocris Bioscience, cat. 1254). The K12877-001-R-J1-PDC line was cultured in 6I media, which includes all 6C/Colon 1B media plus 10 ng/mL human FGF-10 (PeproTech, cat. 100-26), 1 ng/mL human FGF-2 (PeproTech, cat. 100-18B), 1 µM prostaglandin E2 (Tocris Bioscience, cat. 2296), […] hydrocortisone (Sigma-Aldrich, cat. H4001), and […] bovine insulin (Sigma-Aldrich, cat. I6634). The K86415-001-R-J1-PDC line was cultured in 6D media, which includes all 6C/Colon 1B media components minus the L-WRN conditioned media. The 485176-168-R4-J1-PDC was cultured in PANC media, which includes all 6C/Colon 1B media plus 100 ng/mL human FGF-10 (PeproTech, cat. 100-26), 500 nM SB-431542 (Selleckchem, cat. S1067), and 10 nM gastrin (Tocris Bioscience, cat. 3006). […]

[1] = second compound 0.0316 µM, first compound 0.0316 µM
[2] = second compound 0.0316 µM, first compound 0.1 µM
[3] = second compound 0.0316 µM, first compound 0.316 µM
[4] = second compound 0.0316 µM, first compound 1 µM
[5] = second compound 0.1 µM, first compound 0.0316 µM
[6] = second compound 0.1 µM, first compound 0.1 µM
[7] = second compound 0.1 µM, first compound 0.316 µM
[8] = second compound 0.1 µM, first compound 1 µM
[9] = second compound 0.316 µM, first compound 0.0316 µM
[10] = second compound 0.316 µM, first compound 0.1 µM
[11] = second compound 0.316 µM, first compound 0.316 µM
[12] = second compound 0.316 µM, first compound 1 µM
[13] = second compound 1 µM, first compound 0.0316 µM
[14] = second compound 1 µM, first compound 0.1 µM
[15] = second compound 1 µM, first compound 0.316 µM
[16] = second compound 1 µM, first compound 1 µM
[17] = second compound 3.16 µM, first compound 0.0316 µM
[18] = second compound 3.16 µM, first compound 0.1 µM
[19] = second compound 3.16 µM, first compound 0.316 µM
[20] = second compound 3.16 µM, first compound 1 µM
[21] = second compound 10 µM, first compound 0.0316 µM
[22] = second compound 10 µM, first compound 0.1 µM
[23] = second compound 10 µM, first compound 0.316 µM
[24] = second compound 10 µM, first compound 1 µM
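Note: spheroids exposed to agents for seven days before readout.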
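Throughout, for viability, T/C: luminescence viability as percent of DMSO vehicle control wells.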

IC50 (second compound 0.0316 µM): > 10000 nM
IC50 (second compound 0.1 µM): > 10000 nM
IC50 (second compound 0.316 µM): > 10000 nM
IC50 (second compound 1 µM): > 10000 nM
IC50 (second compound 3.16 µM): > 10000 nM
IC50 (second compound 10 µM): > 10000 nM
SMILES: CC(Nc1ccc2c(c1)OCCn1cc(N3C(=O)OCC3C(F)F)nc1-2)C(N)=O (centres undefined) + C#Cc1c(F)ccc2cc(O)cc(-c3ncc4c(N5CC6CCC(C5)N6)nc(OCC56CCCN5CC(F)C6)nc4c3F)c12
viability, T/C [1]: 109%
viability, T/C [2]: 84.6%
viability, T/C [3]: 88.8%
viability, T/C [4]: 96%
viability, T/C (second compound 0.0316 µM, first compound 3.16 µM): 90.2%
viability, T/C (second compound 0.0316 µM, first compound 10 µM): 72.8%
viability, T/C [5]: 101%
viability, T/C [6]: 85.7%
viability, T/C [7]: 93.1%
viability, T/C [8]: 97.3%
viability, T/C (second compound 0.1 µM, first compound 3.16 µM): 91.1%
viability, T/C (second compound 0.1 µM, first compound 10 µM): 72.6%
viability, T/C [9]: 131%
viability, T/C [10]: 92.7%
viability, T/C [11]: 78.2%
viability, T/C [12]: 104%
viability, T/C (second compound 0.316 µM, first compound 3.16 µM): 74.7%
viability, T/C (second compound 0.316 µM, first compound 10 µM): 96.1%
viability, T/C [13]: 95.7%
viability, T/C [14]: 97.8%
viability, T/C [15]: 98.7%
viability, T/C [16]: 100%
viability, T/C (second compound 1 µM, first compound 3.16 µM): 88.5%
viability, T/C (second compound 1 µM, first compound 10 µM): 93.3%
viability, T/C [17]: 90.5%
viability, T/C [18]: 88.8%
viability, T/C [19]: 88.3%
viability, T/C [20]: 77.5%
viability, T/C (second compound 3.16 µM, first compound 3.16 µM): 76.6%
viability, T/C (second compound 3.16 µM, first compound 10 µM): 76.9%
viability, T/C [21]: 102%
viability, T/C [22]: 101%
viability, T/C [23]: 97%
viability, T/C [24]: 81.2%
viability, T/C (second compound 10 µM, first compound 3.16 µM): 90%
viability, T/C (second compound 10 µM, first compound 10 µM): 78.5%

IC50 (second compound 0.0316 µM): 80 nM
IC50 (second compound 0.1 µM): 63.5 nM
IC50 (second compound 0.316 µM): 50.4 nM
IC50 (second compound 1 µM): 45.5 nM
IC50 (second compound 3.16 µM): 42.5 nM
IC50 (second compound 10 µM): 24.9 nM
SMILES: O=C(c1ccc(F)c(F)c1Nc1ccc(I)cc1F)N1CC(O)([C@@H]2CCCCN2)C1 + C#Cc1c(F)ccc2cc(O)cc(-c3ncc4c(N5CC6CCC(C5)N6)nc(OCC56CCCN5CC(F)C6)nc4c3F)c12
viability, T/C (second compound 0.0316 µM, first compound 0.00316 µM): 92%
viability, T/C (second compound 0.0316 µM, first compound 0.01 µM): 73%
viability, T/C [1]: 80.9%
viability, T/C [2]: 42.3%
viability, T/C [3]: 27.6%
viability, T/C [4]: 19.7%
viability, T/C (second compound 0.1 µM, first compound 0.00316 µM): 86.3%
viability, T/C (second compound 0.1 µM, first compound 0.01 µM): 75.2%
viability, T/C [5]: 62.5%
viability, T/C [6]: 42.5%
viability, T/C [7]: 26%
viability, T/C [8]: 16.9%
viability, T/C (second compound 0.316 µM, first compound 0.00316 µM): 87.7%
viability, T/C (second compound 0.316 µM, first compound 0.01 µM): 77.5%
viability, T/C [9]: 58.5%
viability, T/C [10]: 37.2%
viability, T/C [11]: 23%
viability, T/C [12]: 15.6%
viability, T/C (second compound 1 µM, first compound 0.00316 µM): 75.3%
viability, T/C (second compound 1 µM, first compound 0.01 µM): 77.1%
viability, T/C [13]: 59.1%
viability, T/C [14]: 29%
viability, T/C [15]: 20.5%
viability, T/C [16]: 14.9%
viability, T/C (second compound 3.16 µM, first compound 0.00316 µM): 79.8%
viability, T/C (second compound 3.16 µM, first compound 0.01 µM): 75.6%
viability, T/C [17]: 56.4%
viability, T/C [18]: 30.5%
viability, T/C [19]: 20.7%
viability, T/C [20]: 15.6%
viability, T/C (second compound 10 µM, first compound 0.00316 µM): 97.2%
viability, T/C (second compound 10 µM, first compound 0.01 µM): 75.1%
viability, T/C [21]: 41.8%
viability, T/C [22]: 25.4%
viability, T/C [23]: 17.5%
viability, T/C [24]: 12.1%
